Measured values published in publication PMC11864979, “First-in-class ultralong-target-residence-time p38α inhibitors as a mitosis-targeted therapy for colorectal cancer” (Nature Cancer, 2025).
Where two headings read alike, the source gives them in different places.

Columns and labels:
Assay in all cases: selectivity profiling in a panel of 340 wild-type kinases (Reaction Biology Europe)
Type in all cases: binding
340 wild-type kinases [1] = biological target: T1, 340 wild-type kinases (Homo sapiens, UniProt O00238)
T1 construct: purchased Reaction Biology Europe

340 wild-type kinases [2] = biological target: T2, 340 wild-type kinases (Homo sapiens, UniProt P11802)
T2 construct: purchased Reaction Biology Europe

340 wild-type kinases [3] = biological target: T3, 340 wild-type kinases (Homo sapiens, UniProt P17612)
T3 construct: purchased Reaction Biology Europe

340 wild-type kinases [4] = biological target: T4, 340 wild-type kinases (Homo sapiens, UniProt P33981)
T4 construct: purchased Reaction Biology Europe
T4 sequence (P33981 1-857): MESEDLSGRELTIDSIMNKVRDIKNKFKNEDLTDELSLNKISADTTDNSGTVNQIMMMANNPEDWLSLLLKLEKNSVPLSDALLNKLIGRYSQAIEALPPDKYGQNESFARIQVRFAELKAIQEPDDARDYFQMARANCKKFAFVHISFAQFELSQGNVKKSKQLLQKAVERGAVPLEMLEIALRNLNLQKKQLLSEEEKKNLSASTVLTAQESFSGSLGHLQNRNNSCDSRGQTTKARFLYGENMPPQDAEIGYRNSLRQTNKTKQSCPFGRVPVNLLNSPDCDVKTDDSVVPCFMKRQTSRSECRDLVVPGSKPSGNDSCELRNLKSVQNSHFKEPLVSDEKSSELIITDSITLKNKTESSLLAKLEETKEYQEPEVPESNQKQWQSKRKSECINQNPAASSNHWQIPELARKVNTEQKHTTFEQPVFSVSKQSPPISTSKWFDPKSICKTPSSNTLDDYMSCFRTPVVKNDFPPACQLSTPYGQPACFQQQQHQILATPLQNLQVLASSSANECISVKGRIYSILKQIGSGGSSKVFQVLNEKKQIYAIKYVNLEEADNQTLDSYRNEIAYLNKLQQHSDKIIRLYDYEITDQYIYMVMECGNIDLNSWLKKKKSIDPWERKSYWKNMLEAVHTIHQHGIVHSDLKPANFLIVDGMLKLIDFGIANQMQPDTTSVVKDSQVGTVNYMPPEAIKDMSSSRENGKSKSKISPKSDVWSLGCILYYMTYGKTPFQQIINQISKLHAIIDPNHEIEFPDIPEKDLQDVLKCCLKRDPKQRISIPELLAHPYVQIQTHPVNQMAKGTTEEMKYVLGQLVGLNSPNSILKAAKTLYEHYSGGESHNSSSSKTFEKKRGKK

340 wild-type kinases [5] = biological target: T5, 340 wild-type kinases (Homo sapiens, UniProt Q02779)
T5 construct: purchased Reaction Biology Europe

340 wild-type kinases [6] = biological target: T6, 340 wild-type kinases (Homo sapiens, UniProt Q07002)
T6 construct: purchased Reaction Biology Europe

340 wild-type kinases [7] = biological target: T7, 340 wild-type kinases (Homo sapiens, UniProt Q13153)
T7 construct: purchased Reaction Biology Europe

340 wild-type kinases [8] = biological target: T8, 340 wild-type kinases (Homo sapiens, UniProt Q8N4C8)
T8 construct: purchased Reaction Biology Europe

340 wild-type kinases [9] = biological target: T9, 340 wild-type kinases (Homo sapiens, UniProt Q96L34)
T9 construct: purchased Reaction Biology Europe
T9 sequence (Q96L34 1-752): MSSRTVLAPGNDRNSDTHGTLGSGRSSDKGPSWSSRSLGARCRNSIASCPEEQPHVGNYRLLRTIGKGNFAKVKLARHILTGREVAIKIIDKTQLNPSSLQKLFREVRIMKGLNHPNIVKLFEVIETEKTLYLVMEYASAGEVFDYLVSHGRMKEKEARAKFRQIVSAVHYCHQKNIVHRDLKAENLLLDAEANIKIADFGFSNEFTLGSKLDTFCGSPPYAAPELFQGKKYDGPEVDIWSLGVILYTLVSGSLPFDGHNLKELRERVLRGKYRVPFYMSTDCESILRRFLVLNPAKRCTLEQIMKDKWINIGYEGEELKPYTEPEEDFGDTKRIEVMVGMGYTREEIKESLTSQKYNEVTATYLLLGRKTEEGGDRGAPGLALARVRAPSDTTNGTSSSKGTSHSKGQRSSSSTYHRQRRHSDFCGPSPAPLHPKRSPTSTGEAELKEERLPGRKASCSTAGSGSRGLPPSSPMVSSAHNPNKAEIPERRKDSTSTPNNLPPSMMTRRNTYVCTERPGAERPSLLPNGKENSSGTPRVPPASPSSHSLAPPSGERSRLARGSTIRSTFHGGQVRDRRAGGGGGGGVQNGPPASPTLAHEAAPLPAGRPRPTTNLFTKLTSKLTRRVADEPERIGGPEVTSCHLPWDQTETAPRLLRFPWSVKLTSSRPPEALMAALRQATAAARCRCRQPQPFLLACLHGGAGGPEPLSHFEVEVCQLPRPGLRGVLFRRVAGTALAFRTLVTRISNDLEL

T8 sequence (Q8N4C8 whole entry): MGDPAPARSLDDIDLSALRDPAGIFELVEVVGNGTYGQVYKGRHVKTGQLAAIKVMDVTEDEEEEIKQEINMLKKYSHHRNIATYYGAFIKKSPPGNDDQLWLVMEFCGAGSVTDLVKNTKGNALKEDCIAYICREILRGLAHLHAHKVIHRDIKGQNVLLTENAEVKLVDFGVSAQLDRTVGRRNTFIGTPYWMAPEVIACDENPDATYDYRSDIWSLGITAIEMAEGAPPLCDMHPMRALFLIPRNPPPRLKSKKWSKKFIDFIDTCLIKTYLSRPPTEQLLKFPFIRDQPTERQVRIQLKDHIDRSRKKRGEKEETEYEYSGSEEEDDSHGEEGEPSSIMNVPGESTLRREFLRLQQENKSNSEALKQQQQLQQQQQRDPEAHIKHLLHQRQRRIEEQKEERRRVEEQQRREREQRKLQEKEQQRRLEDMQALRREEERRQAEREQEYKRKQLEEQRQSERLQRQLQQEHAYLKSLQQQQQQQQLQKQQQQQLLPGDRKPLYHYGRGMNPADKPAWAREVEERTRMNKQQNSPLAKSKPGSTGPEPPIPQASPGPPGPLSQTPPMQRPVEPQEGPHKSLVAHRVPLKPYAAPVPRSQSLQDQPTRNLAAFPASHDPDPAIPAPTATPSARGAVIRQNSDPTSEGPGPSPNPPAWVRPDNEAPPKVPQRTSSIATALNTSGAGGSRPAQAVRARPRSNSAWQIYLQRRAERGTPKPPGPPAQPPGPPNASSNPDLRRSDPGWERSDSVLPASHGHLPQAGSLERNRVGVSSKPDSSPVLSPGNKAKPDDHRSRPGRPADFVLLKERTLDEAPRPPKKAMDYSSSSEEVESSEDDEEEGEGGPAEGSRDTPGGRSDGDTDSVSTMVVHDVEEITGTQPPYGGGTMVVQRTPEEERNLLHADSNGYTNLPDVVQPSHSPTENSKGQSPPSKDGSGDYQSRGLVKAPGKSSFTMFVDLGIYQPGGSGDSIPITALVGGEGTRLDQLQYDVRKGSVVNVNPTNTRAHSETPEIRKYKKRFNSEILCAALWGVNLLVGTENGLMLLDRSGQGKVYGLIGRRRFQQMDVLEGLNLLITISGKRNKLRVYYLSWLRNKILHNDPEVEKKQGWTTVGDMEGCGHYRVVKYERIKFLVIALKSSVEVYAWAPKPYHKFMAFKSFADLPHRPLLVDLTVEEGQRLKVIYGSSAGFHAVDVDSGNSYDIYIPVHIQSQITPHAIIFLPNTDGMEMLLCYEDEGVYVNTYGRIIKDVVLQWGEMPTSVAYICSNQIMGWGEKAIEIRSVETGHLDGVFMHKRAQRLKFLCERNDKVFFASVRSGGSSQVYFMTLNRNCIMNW
T6 sequence (Q07002 whole entry): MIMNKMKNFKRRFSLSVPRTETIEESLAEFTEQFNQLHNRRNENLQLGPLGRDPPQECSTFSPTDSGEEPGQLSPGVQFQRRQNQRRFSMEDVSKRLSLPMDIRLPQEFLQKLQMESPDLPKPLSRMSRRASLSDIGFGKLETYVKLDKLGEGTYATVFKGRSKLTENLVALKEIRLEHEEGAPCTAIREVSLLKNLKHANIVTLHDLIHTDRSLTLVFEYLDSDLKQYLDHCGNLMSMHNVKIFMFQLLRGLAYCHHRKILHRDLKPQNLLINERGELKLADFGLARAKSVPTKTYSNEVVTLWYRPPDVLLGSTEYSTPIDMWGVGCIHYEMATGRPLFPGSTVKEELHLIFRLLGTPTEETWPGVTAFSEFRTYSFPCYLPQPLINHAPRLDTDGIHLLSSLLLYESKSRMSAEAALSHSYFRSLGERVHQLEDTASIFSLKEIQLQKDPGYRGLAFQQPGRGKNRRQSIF
T1 sequence (O00238 14-502): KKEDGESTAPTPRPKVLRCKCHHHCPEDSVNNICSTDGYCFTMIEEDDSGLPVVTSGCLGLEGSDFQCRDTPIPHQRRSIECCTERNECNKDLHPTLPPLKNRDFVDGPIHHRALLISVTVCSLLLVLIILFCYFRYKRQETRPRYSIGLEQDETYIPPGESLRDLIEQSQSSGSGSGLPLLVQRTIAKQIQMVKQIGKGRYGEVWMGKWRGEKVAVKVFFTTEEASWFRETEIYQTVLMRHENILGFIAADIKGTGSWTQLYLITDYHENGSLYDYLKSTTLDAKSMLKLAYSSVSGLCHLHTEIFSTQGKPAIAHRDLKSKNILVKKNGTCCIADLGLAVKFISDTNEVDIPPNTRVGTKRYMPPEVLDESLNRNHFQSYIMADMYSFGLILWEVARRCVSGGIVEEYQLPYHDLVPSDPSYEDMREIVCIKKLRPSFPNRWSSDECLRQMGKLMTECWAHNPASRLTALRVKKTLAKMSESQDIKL
T2 sequence (P11802 whole entry): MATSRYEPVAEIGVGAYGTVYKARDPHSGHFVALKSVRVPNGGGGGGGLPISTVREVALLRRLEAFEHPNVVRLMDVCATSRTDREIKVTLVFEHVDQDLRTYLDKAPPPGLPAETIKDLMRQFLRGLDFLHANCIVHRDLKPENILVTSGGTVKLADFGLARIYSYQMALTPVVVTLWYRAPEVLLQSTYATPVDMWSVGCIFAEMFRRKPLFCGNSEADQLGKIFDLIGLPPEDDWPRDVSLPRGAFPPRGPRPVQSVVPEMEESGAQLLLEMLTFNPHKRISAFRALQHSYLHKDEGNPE
T7 sequence (Q13153 whole entry): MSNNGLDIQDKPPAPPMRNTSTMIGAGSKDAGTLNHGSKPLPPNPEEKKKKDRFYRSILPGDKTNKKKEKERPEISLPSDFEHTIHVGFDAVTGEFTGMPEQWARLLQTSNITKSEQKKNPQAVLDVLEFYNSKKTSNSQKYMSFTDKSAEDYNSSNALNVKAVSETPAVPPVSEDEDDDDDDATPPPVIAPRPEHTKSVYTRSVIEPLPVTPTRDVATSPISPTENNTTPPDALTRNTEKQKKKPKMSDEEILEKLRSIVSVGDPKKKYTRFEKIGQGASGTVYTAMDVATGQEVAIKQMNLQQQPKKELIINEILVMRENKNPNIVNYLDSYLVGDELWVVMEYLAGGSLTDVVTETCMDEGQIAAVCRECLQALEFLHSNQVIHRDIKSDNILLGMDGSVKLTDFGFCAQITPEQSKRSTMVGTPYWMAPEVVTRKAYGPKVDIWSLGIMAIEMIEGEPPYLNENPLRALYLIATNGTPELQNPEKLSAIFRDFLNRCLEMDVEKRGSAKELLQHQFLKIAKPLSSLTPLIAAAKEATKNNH
T5 sequence (Q02779 whole entry): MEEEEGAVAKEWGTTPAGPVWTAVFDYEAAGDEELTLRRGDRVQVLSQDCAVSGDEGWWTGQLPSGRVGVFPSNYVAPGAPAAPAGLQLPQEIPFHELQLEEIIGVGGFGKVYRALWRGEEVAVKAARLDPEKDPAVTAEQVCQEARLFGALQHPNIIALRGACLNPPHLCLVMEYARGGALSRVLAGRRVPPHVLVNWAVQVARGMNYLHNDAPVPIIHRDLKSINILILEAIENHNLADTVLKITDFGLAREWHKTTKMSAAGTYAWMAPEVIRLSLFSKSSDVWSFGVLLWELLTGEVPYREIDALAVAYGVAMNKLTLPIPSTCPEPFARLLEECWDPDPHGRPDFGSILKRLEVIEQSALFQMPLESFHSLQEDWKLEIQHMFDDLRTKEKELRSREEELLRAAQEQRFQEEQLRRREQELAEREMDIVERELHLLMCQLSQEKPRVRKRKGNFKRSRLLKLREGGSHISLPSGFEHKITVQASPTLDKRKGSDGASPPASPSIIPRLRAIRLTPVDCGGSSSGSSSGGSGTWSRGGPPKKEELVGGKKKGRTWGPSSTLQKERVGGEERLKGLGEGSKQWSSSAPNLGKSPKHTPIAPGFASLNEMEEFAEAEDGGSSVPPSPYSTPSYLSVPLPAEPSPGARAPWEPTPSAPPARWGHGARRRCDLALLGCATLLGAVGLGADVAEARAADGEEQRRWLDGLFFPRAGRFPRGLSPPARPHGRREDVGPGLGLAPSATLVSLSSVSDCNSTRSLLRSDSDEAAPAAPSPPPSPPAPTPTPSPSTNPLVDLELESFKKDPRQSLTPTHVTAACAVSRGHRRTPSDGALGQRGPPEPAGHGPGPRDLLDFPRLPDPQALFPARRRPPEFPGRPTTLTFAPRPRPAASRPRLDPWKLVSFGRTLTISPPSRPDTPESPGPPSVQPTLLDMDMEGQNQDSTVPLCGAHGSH

With `CNC(=O)c1ccc2c(c1)C(=O)c1ccc(Nc3ccc(F)c(NC(=O)C4CC4)c3)cc1CC2` [Compound 2015] the remaining activity at 0.2 µM (340 wild-type kinases [1]; 0.2 µM 2015, read-out: BMPR1B residual activity) was 105%, the remaining activity at 1 µM (340 wild-type kinases [1]; 1 µM 2015, read-out: BMPR1B residual activity) was 103% and the remaining activity at 0.2 µM (340 wild-type kinases [1]; BMPR1B, 0.2 µM, read-out: residual activity) was 105%. For the same compound, the remaining activity at 1 µM (340 wild-type kinases [1]; BMPR1B, 1 µM, read-out: residual activity) was 103%, the remaining activity at 0.2 µM (340 wild-type kinases [2]; 0.2 µM 2015, read-out: CDK4/CycD1 residual activity) was 117% and the remaining activity at 0.2 µM (340 wild-type kinases [2]; 0.2 µM 2015, read-out: CDK4/CycD2 residual activity) was 109%. For the same compound, the remaining activity at 0.2 µM (340 wild-type kinases [2]; 0.2 µM 2015, read-out: CDK4/CycD3 residual activity) was 70.3%, the remaining activity at 1 µM (340 wild-type kinases [2]; 1 µM 2015, read-out: CDK4/CycD1 residual activity) was 98.4% and the remaining activity at 1 µM (340 wild-type kinases [2]; 1 µM 2015, read-out: CDK4/CycD2 residual activity) was 103%. The remaining activity at 1 µM (340 wild-type kinases [2]; 1 µM 2015, read-out: CDK4/CycD3 residual activity) was 81.7%, the remaining activity at 0.2 µM (340 wild-type kinases [2]; CDK4/CycD1, 0.2 µM, read-out: residual activity) was 117% and the remaining activity at 0.2 µM (340 wild-type kinases [2]; CDK4/CycD2, 0.2 µM, read-out: residual activity) was 109%. The remaining activity at 1 µM (340 wild-type kinases [2]; CDK4/CycD2, 1 µM, read-out: residual activity) was 103%, the remaining activity at 0.2 µM (340 wild-type kinases [2]; CDK4/CycD3, 0.2 µM, read-out: residual activity) was 70.3% and the remaining activity at 1 µM (340 wild-type kinases [2]; CDK4/CycD3, 1 µM, read-out: residual activity) was 81.7%. The remaining activity at 0.2 µM (340 wild-type kinases [3]; 0.2 µM 2015, read-out: PKA residual activity) was 124%, the remaining activity at 1 µM (340 wild-type kinases [3]; 1 µM 2015, read-out: PKA residual activity) was 97.7% and the remaining activity at 0.2 µM (340 wild-type kinases [3]; PKA, 0.2 µM, read-out: residual activity) was 124%. It also gave a remaining activity at 1 µM (340 wild-type kinases [3]; PKA, 1 µM, read-out: residual activity) of 97.8%, a remaining activity at 0.2 µM (340 wild-type kinases [4]; 0.2 µM 2015, read-out: TTK residual activity) of 95.3% and a remaining activity at 1 µM (340 wild-type kinases [4]; 1 µM 2015, read-out: TTK residual activity) of 90.4%. The remaining activity at 0.2 µM (340 wild-type kinases [4]; TTK, 0.2 µM, read-out: residual activity) was 95.3%, the remaining activity at 1 µM (340 wild-type kinases [4]; TTK, 1 µM, read-out: residual activity) was 90.4% and the remaining activity at 0.2 µM (340 wild-type kinases [5]; 0.2 µM 2015, read-out: MAP3K10 residual activity) was 111%. The remaining activity at 1 µM (340 wild-type kinases [5]; 1 µM 2015, read-out: MAP3K10 residual activity) was 106%, the remaining activity at 0.2 µM (340 wild-type kinases [5]; MAP3K10, 0.2 µM, read-out: residual activity) was 111% and the remaining activity at 1 µM (340 wild-type kinases [5]; MAP3K10, 1 µM, read-out: residual activity) was 106%. For the same compound, the remaining activity at 0.2 µM (340 wild-type kinases [6]; 0.2 µM 2015, read-out: CDK18/CycY residual activity) was 102%, the remaining activity at 1 µM (340 wild-type kinases [6]; 1 µM 2015, read-out: CDK18/CycY residual activity) was 92.8% and the remaining activity at 0.2 µM (340 wild-type kinases [6]; CDK18/CycY, 0.2 µM, read-out: residual activity) was 102%. The remaining activity at 1 µM (340 wild-type kinases [6]; CDK18/CycY, 1 µM, read-out: residual activity) was 92.8%, the remaining activity at 0.2 µM (340 wild-type kinases [7]; 0.2 µM 2015, read-out: PAK1 residual activity) was 94.7% and the remaining activity at 1 µM (340 wild-type kinases [7]; 1 µM 2015, read-out: PAK1 residual activity) was 79.5%. For the same compound, the remaining activity at 0.2 µM (340 wild-type kinases [7]; PAK1, 0.2 µM, read-out: residual activity) was 94.7%, the remaining activity at 1 µM (340 wild-type kinases [7]; PAK1, 1 µM, read-out: residual activity) was 79.5% and the remaining activity at 0.2 µM (340 wild-type kinases [8]; 0.2 µM 2015, read-out: MINK1 residual activity) was 88.4%. For the same compound, the remaining activity at 1 µM (340 wild-type kinases [8]; 1 µM 2015, read-out: MINK1 residual activity) was 84.4%, the remaining activity at 0.2 µM (340 wild-type kinases [8]; MINK1, 0.2 µM, read-out: residual activity) was 88.4% and the remaining activity at 1 µM (340 wild-type kinases [8]; MINK1, 1 µM, read-out: residual activity) was 84.4%. The remaining activity at 0.2 µM (340 wild-type kinases [9]; 0.2 µM 2015, read-out: MARK4 residual activity) was 94.8%, the remaining activity at 1 µM (340 wild-type kinases [9]; 1 µM 2015, read-out: MARK4 residual activity) was 84.1% and the remaining activity at 0.2 µM (340 wild-type kinases [9]; MARK4, 0.2 µM, read-out: residual activity) was 94.8%. For the same compound, the remaining activity at 1 µM (340 wild-type kinases [9]; MARK4, 1 µM, read-out: residual activity) was 84.1%.
